In brackets after ≈: the same amount, converted by molar mass.

As a reminder, the EC50 is the concentration that produces a half-maximal response.

One test concerns VRE ATCC700221. In words: Anti-bacterial activity, Bioscreen C growth curve: VRE. It is filed as cell-based, vancomycin-resistant Enterococcus (VRE). As to conditions: Enterococcus, 35° C., 16 hours, negative control = 100, read-out: % of growth at 25 PPM compared to the negative control, VRE ATCC700221. As to the method: (§1) For the determination of the anti-bacterial and anti-fungal activity the Bioscreen C Analyser Labsystems, Finland, was used. This is an automated reader-incubator. It measures growth continuously by vertical photometry (optical density), processes the data and provides a print out of the results. The area under the growth curve is automatically determined via the Biolink software.
(§2) The inoculum size of the bacteria is standardized to approximately 5×10^5 CFU/ml.
(§3) For bacteria, the 100-honey-well plates containing test chemical, Mueller-Hinton broth and inoculum (=sample) are incubated at 35° C. for 16 hours. Also wells without inoculum are incubated (=blanco). Yeasts are incubated 35° C. for 24 hours in RPMI 1640+MOPS buffer at 165 mM. Moulds also in RPMI 1640+MOPS buffer at 165 mM are incubated 25° C. for 5 days. All micro-organisms are screened against a known concentration of the reference antibiotics or antimycotics such as vancomycin, penicillin G, gentamicin or amphotericin B. The growth curve and the area under the growth curve can be determined using the Biolink software; this is illustrated in FIG. 1.
(§4) The area of the blanco is subtracted from the area of the sample, this number (delta) gives us an indication of the biological activity of the molecules tested and can be expressed as a % of growth at a specific dose compared to a negative control that has a value of 100, illustrated in FIG. 2. Screening of each dose of a specific compound is repeated 5 times. The dose used for all new molecules in all tests is 25 PPM or 25 μg/ml.
(§5) In Table 4 the results of the anti-bacterial activity is given for the new molecules. The micro-organisms used are Staphylococcus aureus, MRSA, VRE, Enterococcus faecalis, Salmonella typhimurium and Pseudomonas aeruginosa.
Consider `CO[C@@H]1[C@@H](OC)[C@H](Cc2ccccc2)O[C@@H]2COC(=O)CC/C=C/CCC(=O)O[C@@H]12` [KPE00001022], for which the activity at 25 ppm came to 87%.

For `CO[C@@H]1[C@@H](OC)[C@H](Cc2ccccc2)O[C@@H]2COC(=O)CCCCCCCCC=CCCCCCCCCC(=O)O[C@@H]12` [KPE00001031E], the activity at 25 ppm was 85.4%.

The subject of the next test is P. aeruginosa ATCC27853 LMG16217. The test can be described thus: Anti-bacterial activity, Bioscreen C growth curve: P. aeruginosa. The note with it: Pseudomonas aeruginosa; 25 PPM; 35° C., 16 hours; negative control = 100; read-out: % of growth at 25 PPM compared to the negative control, P. aeruginosa ATCC27853 LMG16217. It is filed as cell-based, Pseudomonas aeruginosa. As to the method:
as §1, §2, §3, §4, §5
As to `CO[C@@H]1[C@@H](OC)[C@H](Cc2ccccc2)O[C@@H]2COC(=O)CC/C=C/CCC(=O)O[C@@H]12` [KPE00001022], the activity at 25 ppm is 90.9%.

Turning to `CO[C@@H]1[C@@H](OC)[C@H](Cc2ccccc2)O[C@@H]2COC(=O)CCCCCCCCC=CCCCCCCCCC(=O)O[C@@H]12` [KPE00001031E], the activity at 25 ppm was 89.6%.

A further test concerns HIV-2 (ROD). In words: Anti-viral activity: HIV-2-induced cytopathicity in human CEM cell cultures. It is filed as cell-based. As to conditions: Human immunodeficiency virus 2, CCRF-CEM; concentration required to inhibit HIV-induced cytopathicity in human CEM cell cultures by 50%. A general note: Damage to the host cells serves as the signal in cytopathic effect assays.
On to `CO[C@@H]1[C@@H](OC)[C@H](Cc2ccccc2)O[C@@H]2COC(=O)CC/C=C/CCC(=O)O[C@@H]12` [KPE00001022], for which the EC50 is over 20 mg/L.

`CO[C@@H]1[C@@H](OC)[C@H](Cc2ccccc2)O[C@@H]2COC(=O)CCCCCCCCC=CCCCCCCCCC(=O)O[C@@H]12` [KPE00001031E]: the EC50 was over 20 mg/L.

In a further test the test system is VZV YS. The test can be described thus: Anti-viral activity: VZV-induced plaque formation in HEL cell cultures, YS strain. Type of test: cell-based, varicella zoster virus (VZV). As to conditions: Human alphaherpesvirus 3, VZV-induced plaque formation in human embryonic lung HEL cell cultures, 50%.
Consider `CO[C@@H]1[C@@H](OC)[C@H](Cc2ccccc2)O[C@@H]2COC(=O)CC/C=C/CCC(=O)O[C@@H]12` [KPE00001022], for which the EC50 was over 20 mg/L.

Compound `CO[C@@H]1[C@@H](OC)[C@H](Cc2ccccc2)O[C@@H]2COC(=O)CCCCCCCCC=CCCCCCCCCC(=O)O[C@@H]12` [KPE00001031E] gave an EC50 of 15 mg/L (≈ 25.6 µM).

A further test has as its system E. faecalis ATTC29212 LMG 8222. In words: Anti-bacterial activity, Bioscreen C growth curve: E. faecalis. It is filed as cell-based. As to conditions: Enterococcus faecalis, LMG8222, 35° C., 16 hours, negative control = 100, read-out: % of growth at 25 PPM compared to the negative control, E. faecalis ATTC29212 LMG 8222. As to the method: as §1, §2, §3, §4, §5
As to `CO[C@@H]1[C@@H](OC)[C@H](Cc2ccccc2)O[C@@H]2COC(=O)CC/C=C/CCC(=O)O[C@@H]12` [KPE00001022], the activity at 25 ppm was determined as 96.1%.

Turning to `CO[C@@H]1[C@@H](OC)[C@H](Cc2ccccc2)O[C@@H]2COC(=O)CCCCCCCCC=CCCCCCCCCC(=O)O[C@@H]12` [KPE00001031E], the activity at 25 ppm was 85.5%.

The test system of another test is VZV OKA. The test can be described thus: microbe, parasite or virus in culture. It is filed as cell-based, varicella zoster virus (VZV). The note with it: Human alphaherpesvirus 3, HEL, read-out: EC50 VZV (HEL) OKA.
For the compound `CO[C@@H]1[C@@H](OC)[C@H](Cc2ccccc2)O[C@@H]2COC(=O)CC/C=C/CCC(=O)O[C@@H]12` [KPE00001022], the EC50 is over 20 mg/L.

With `CO[C@@H]1[C@@H](OC)[C@H](Cc2ccccc2)O[C@@H]2COC(=O)CCCCCCCCC=CCCCCCCCCC(=O)O[C@@H]12` [KPE00001031E], the EC50 is over 5 mg/L.

The test system of the next test is human T-lymphocyte cells (Molt4/C8). In words: Cytostatic activity: inhibition of proliferation of Molt4/C8 cells. Type of test: cell-based. As to conditions: Molt4/C8, 50% inhibitory concentration, cell proliferation, read-out: IC50 Molt4/C8. As to the method:
(§6) The compounds were tested for anti-tumor activity via the inhibitory effects on the proliferation of murine leukemia cells (L1210/0), murine mammary carcinoma cells (FM3A), human T-lymphocyte cells (Molt4/C8, CEM/0) and human cervix carcinoma cells (HeLa).
For `CO[C@@H]1[C@@H](OC)[C@H](Cc2ccccc2)O[C@@H]2COC(=O)CCCCCCCCC=CCCCCCCCCC(=O)O[C@@H]12` [KPE00001031E], the IC50 is at least 200 mg/L.

Staying with this test, now noted: Molt4/C8, read-out: IC50 Molt4/C8.
With `CO[C@@H]1[C@@H](OC)[C@H](Cc2ccccc2)O[C@@H]2COC(=O)CC/C=C/CCC(=O)O[C@@H]12` [KPE00001022], the IC50 was 69 ± 6 mg/L (≈ 165 µM).

A further test relates to HSV-1 (KOS). The test can be described thus: Anti-viral activity: HSV-1-induced cytopathicity in human embryo fibroblast E6SM cell cultures. Type of test: cell-based, herpes simplex virus (HSV). The note with it: Human alphaherpesvirus 1, 50%.
In turn, `CO[C@@H]1[C@@H](OC)[C@H](Cc2ccccc2)O[C@@H]2COC(=O)CC/C=C/CCC(=O)O[C@@H]12` [KPE00001022] came in with an EC50 of over 80 mg/L.

Turning to `CO[C@@H]1[C@@H](OC)[C@H](Cc2ccccc2)O[C@@H]2COC(=O)CCCCCCCCC=CCCCCCCCCC(=O)O[C@@H]12` [KPE00001031E], the EC50 was at least 400 mg/L.

The next test relates to murine mammary carcinoma cells (FM3A). The test can be described thus: Cytostatic activity: inhibition of proliferation of FM3A cells. Type of test: cell-based. The note with it: Mus musculus, 50% inhibitory concentration, cell proliferation, read-out: IC50 FM3A/0. As to the method: as §6
Regarding `CO[C@@H]1[C@@H](OC)[C@H](Cc2ccccc2)O[C@@H]2COC(=O)CCCCCCCCC=CCCCCCCCCC(=O)O[C@@H]12` [KPE00001031E], the IC50 was at least 200 mg/L.

Staying with this test, now noted: Mus musculus, read-out: IC50 FM3A/0.
In the case of `CO[C@@H]1[C@@H](OC)[C@H](Cc2ccccc2)O[C@@H]2COC(=O)CC/C=C/CCC(=O)O[C@@H]12` [KPE00001022], the IC50 came out at 82 ± 14 mg/L (≈ 196 µM).

For a further test, the system named is VV. The test can be described thus: microbe, parasite or virus in culture. Type of test: cell-based. The note with it: Orthopoxvirus vaccinia, E6SM, read-out: EC50 VV (E6SM).
As for `CO[C@@H]1[C@@H](OC)[C@H](Cc2ccccc2)O[C@@H]2COC(=O)CC/C=C/CCC(=O)O[C@@H]12` [KPE00001022], the EC50 was 80 mg/L (≈ 191 µM).

Regarding `CO[C@@H]1[C@@H](OC)[C@H](Cc2ccccc2)O[C@@H]2COC(=O)CCCCCCCCC=CCCCCCCCCC(=O)O[C@@H]12` [KPE00001031E], the concentration for a half-maximal effect (EC50) is over 400 mg/L.

The subject of the next test is HIV-1 (IIIB). The test can be described thus: microbe, parasite or virus in culture. Type of test: cell-based. The note with it: Human immunodeficiency virus 1, IIIB, CCRF-CEM; concentration required to inhibit HIV-induced cytopathicity in human CEM cell cultures by 50%.
Compound `CO[C@@H]1[C@@H](OC)[C@H](Cc2ccccc2)O[C@@H]2COC(=O)CC/C=C/CCC(=O)O[C@@H]12` [KPE00001022] displayed an EC50 of over 20 mg/L.

Take `CO[C@@H]1[C@@H](OC)[C@H](Cc2ccccc2)O[C@@H]2COC(=O)CCCCCCCCC=CCCCCCCCCC(=O)O[C@@H]12` [KPE00001031E]: the EC50 was over 100 mg/L.

The test system of another test is MRSA ATCC33591. In words: Anti-bacterial activity, Bioscreen C growth curve: MRSA. As to conditions: Staphylococcus aureus, ATCC 33591 / LMG10147 / MRSA; 25 PPM; 35° C., 16 hours; negative control = 100; read-out: % of growth at 25 PPM compared to the negative control, MRSA ATCC33591 LMG10147. Type of test: cell-based, methicillin-resistant Staphylococcus aureus (MRSA). The protocol:
as §1, §2, §3, §4, §5
For the compound `CO[C@@H]1[C@@H](OC)[C@H](Cc2ccccc2)O[C@@H]2COC(=O)CC/C=C/CCC(=O)O[C@@H]12` [KPE00001022], the activity at 25 ppm came out at 110%.

With `CO[C@@H]1[C@@H](OC)[C@H](Cc2ccccc2)O[C@@H]2COC(=O)CCCCCCCCC=CCCCCCCCCC(=O)O[C@@H]12` [KPE00001031E], the activity at 25 ppm was determined as 104%.

Another test has as its system S. typhimurium ATTC700408. In words: Anti-bacterial activity, Bioscreen C growth curve: S. typhimurium. Type of test: cell-based. As to conditions: Salmonella enterica, LMG16217 / TYPHIMURIUM, 35° C., 16 hours, negative control = 100, read-out: % of growth at 25 PPM compared to the negative control, S. typhimurium ATTC700408 LMG16217. As to the method: as §1, §2, §3, §4, §5
With `CO[C@@H]1[C@@H](OC)[C@H](Cc2ccccc2)O[C@@H]2COC(=O)CC/C=C/CCC(=O)O[C@@H]12` [KPE00001022], the activity at 25 ppm was 94%.

Take `CO[C@@H]1[C@@H](OC)[C@H](Cc2ccccc2)O[C@@H]2COC(=O)CCCCCCCCC=CCCCCCCCCC(=O)O[C@@H]12` [KPE00001031E]: the activity at 25 ppm came out at 91.7%.

In the next test the test system is S. aureus ATTC29213 LMG10147. The test can be described thus: Anti-bacterial activity, Bioscreen C growth curve: S. aureus. Type of test: cell-based. The note with it: Staphylococcus aureus, 35° C., 16 hours, negative control = 100, read-out: % of growth at 25 PPM compared to the negative control, S. aureus ATTC29213 LMG10147. As to the method:
as §1, §2, §3, §4, §5
Turning to `CO[C@@H]1[C@@H](OC)[C@H](Cc2ccccc2)O[C@@H]2COC(=O)CC/C=C/CCC(=O)O[C@@H]12` [KPE00001022], the activity at 25 ppm was 102%.

As for `CO[C@@H]1[C@@H](OC)[C@H](Cc2ccccc2)O[C@@H]2COC(=O)CCCCCCCCC=CCCCCCCCCC(=O)O[C@@H]12` [KPE00001031E], the activity at 25 ppm was found to be 100%.

The subject of a further test is human cervix carcinoma cells (HeLa). The test can be described thus: Cytostatic activity: inhibition of proliferation of HeLa cells. Type of test: cell-based. As to conditions: 50% inhibitory concentration, cell proliferation. The protocol: as §6
`CO[C@@H]1[C@@H](OC)[C@H](Cc2ccccc2)O[C@@H]2COC(=O)CC/C=C/CCC(=O)O[C@@H]12` [KPE00001022] yielded an IC50 of about 167 mg/L (≈ 399 µM).

On to `CO[C@@H]1[C@@H](OC)[C@H](Cc2ccccc2)O[C@@H]2COC(=O)CCCCCCCCC=CCCCCCCCCC(=O)O[C@@H]12` [KPE00001031E], for which the IC50 is over 200 mg/L.

The values are drawn from US7534871B2, “Preparation and use of carbohydrate-based bicyclic ring structures with antimicrobial and cytostatic activity” (Kemin Pharma B.V.B.A., priority 2004, dated 2009).
